Experimental findings from patent US11370769B2, “TRPC5 inhibitors and methods of using same” (BOARD OF REGENTS OF THE UNIVERSITY OF NEBRASKA, priority 2017, dated 2022) are described below.

The test concerns the target T1, TRPC6 channels (Rattus norvegicus, UniProt Q99N78).
T1 construct: Acutely isolated glomeruli were prepared as described above; from tissue; host or cells: acutely isolated glomeruli (podocytes) of AT1R Tg and WT rats
T1 sequence (Q99N78 1-930): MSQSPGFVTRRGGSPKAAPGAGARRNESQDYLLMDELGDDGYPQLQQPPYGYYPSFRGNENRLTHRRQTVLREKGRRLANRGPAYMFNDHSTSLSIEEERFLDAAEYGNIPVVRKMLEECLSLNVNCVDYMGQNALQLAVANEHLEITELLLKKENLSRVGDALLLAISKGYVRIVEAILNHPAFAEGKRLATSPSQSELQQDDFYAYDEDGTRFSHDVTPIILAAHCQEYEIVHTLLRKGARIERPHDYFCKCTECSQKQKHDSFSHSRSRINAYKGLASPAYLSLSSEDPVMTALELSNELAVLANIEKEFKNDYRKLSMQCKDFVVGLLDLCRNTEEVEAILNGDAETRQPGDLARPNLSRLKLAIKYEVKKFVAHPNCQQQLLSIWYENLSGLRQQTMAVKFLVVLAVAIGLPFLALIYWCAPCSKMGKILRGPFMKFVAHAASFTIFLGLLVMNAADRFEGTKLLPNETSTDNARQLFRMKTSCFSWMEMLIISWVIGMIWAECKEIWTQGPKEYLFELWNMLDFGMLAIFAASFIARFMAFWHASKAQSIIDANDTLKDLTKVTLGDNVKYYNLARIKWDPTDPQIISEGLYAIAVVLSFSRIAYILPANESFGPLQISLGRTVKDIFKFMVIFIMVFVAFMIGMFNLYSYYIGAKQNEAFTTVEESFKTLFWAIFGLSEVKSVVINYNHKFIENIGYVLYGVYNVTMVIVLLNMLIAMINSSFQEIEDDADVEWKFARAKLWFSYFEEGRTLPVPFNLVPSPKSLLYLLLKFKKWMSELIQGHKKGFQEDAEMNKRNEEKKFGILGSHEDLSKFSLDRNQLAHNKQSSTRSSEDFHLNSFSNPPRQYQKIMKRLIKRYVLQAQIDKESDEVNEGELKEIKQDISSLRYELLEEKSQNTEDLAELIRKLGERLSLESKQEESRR
Put plainly: Glomerular inside-out single-channel recordings, OAG-induced conductances. It counts as cell-based. Conditions: glomeruli from age matched AT1R Tg rats and WT controls. The procedure: Acute glomeruli isolation and Ca^2+-imaging: WT and AT1R Tg littermates were killed and kidneys were quickly dissected and washed with ice-cold PBS. After isolation using the sieving technique as previously described (11), glomeruli were incubated with the Ca^2+ indicator Fura2-AM (1 μM; Invitrogen) at 37° C. for 15 min. The extracellular solution for Ca^2+-imaging contained (in mM) 140 NaCl, 5 KCl, 10 HEPES, 2 MgCl2, 2 CaCl2, 10 glucose, with pH7.4 adjusted with NaOH. Glomerular Ca^2+-imaging was performed using an inverted microscope (Olympus IX70) with a high-speed CCD camera (Hamamatsu Photonics). Images were taken and analyzed using the Metafluor software (Molecular Devices). It should be noted that Fura-2 is most often taken up by podocytes at the periphery of the isolated glomerulus, but the specificity of recordings in podocytes is best confirmed by patch clamp electrophysiology, as described below.
Glomerular single-channel recordings: Acutely isolated glomeruli were prepared as described above. Single-channel recordings were carried out using an Axopatch 200B and Digidata 1550A (Molecular Devices). Bath and pipette solutions for glomerular single-channel recording contained (in mM) 135 CH3SO3Na, 5 CsCl, 2 CaCl2, 1 MgCl2, 10 HEPES, and 10 glucose with pH7.4 adjusted with NaOH. […]

With `Cc1cc(N2CCCCC2)nc2ccccc12` [ML204, reference compound], the “inhibition of OAG-induced conductances” value is “no inhibition”.
